Experiments:
[1] = Cell growth assay (WST-8) for "B" compounds; format: cell-based; conditions: T47D, T47D cell line; read-out: Cell growth Inhibition in T47D cell line IC50
In short: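 Cells seeded at 1500/well overnight, then exposed to compounds for 4 days. 10% WST-8 added for 2.5 h at 37 °C and absorbance read at 450 nm. Growth given as absorbance relative to vehicle control, from three repeats.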

ER = ER (Homo sapiens (Human), UniProt P03372); assay: In-cell western blot analysis of ER for "B" compounds; format: cell-based; conditions: 16 hours, read-out: ICW DC50
ER, sequence (P03372 whole entry): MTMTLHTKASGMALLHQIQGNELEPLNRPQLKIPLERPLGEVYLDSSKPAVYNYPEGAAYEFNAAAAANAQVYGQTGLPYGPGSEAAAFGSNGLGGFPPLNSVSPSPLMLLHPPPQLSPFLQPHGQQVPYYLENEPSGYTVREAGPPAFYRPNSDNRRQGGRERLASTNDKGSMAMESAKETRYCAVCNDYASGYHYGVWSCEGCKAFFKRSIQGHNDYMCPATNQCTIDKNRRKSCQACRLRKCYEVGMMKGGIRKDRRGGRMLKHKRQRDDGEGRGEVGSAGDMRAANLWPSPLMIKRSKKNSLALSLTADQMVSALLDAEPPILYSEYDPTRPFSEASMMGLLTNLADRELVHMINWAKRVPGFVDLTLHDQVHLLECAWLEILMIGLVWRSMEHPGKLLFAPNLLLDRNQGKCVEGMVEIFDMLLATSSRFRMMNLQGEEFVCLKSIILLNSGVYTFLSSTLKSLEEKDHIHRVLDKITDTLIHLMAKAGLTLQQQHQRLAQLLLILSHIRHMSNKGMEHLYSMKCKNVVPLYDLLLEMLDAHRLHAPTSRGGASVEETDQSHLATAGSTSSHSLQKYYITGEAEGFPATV
In short: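 In-cell western: fixed cells stained with primary antibodies (2 h, RT), then anti-rabbit-680 and anti-mouse-800 secondaries (1:1000, 1 h, RT), imaged on a LI-COR plate reader. Relative ER level in treated wells expressed against untreated and DMSO-treated wells set as 100%.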

SMILES | DC50 (ER) | IC50 [1]
O=C1CCC(N2Cc3cc4c(cc3C2=O)OC[C@@H]2CN(CC(=O)N3CC5(CCN(c6ccc([C@@H]7c8ccc(O)cc8CC[C@@H]7c7ccccc7)cc6)C5)C3)CCN42)C(=O)N1 (stereo partly drawn) [Compound B209, 3-((S)-3-(2-(6-(4-((1R,2S)-6-hydroxy-2-phenyl-1,2,3,4-tetrahydronaphthalen-1-yl)phenyl)-2,6-diazaspiro[3.4]octan-2-yl)-2-oxoethyl)-8-oxo-1,2,3,4,4a,5,8,10-octahydro-9H-pyrazino[1′,2′:4,5][1,4]oxazino[2,3-f]isoindol-9-yl)piperidine-2,6-dione] | < 10 nM | < 1 nM
COc1c2c(cc3c1CN(C1CCC(=O)NC1=O)C3=O)CN(C(=O)CN1CCC3(CC1)CCN(c1ccc([C@@H]4c5ccc(O)cc5CC[C@@H]4c4ccccc4)cc1)CC3)C2 (stereo partly drawn) [Compound B210, 3-(6-(2-(9-(4-((1R,2S)-6-hydroxy-2-phenyl-1,2,3,4-tetrahydronaphthalen-1-yl)phenyl)-3,9-diazaspiro[5.5]undecan-3-yl)acetyl)-4-methoxy-1-oxo-3,5,6,7-tetrahydropyrrolo[3,4-f]isoindol-2(1H)-yl)piperidine-2,6-dione] | < 10 nM | < 1 nM
O=C1CCC(N2Cc3cc4c(cc3C2=O)OC[C@@H]2CN(CC3CC5(CCN(c6ccc([C@@H]7c8ccc(O)cc8CC[C@@H]7c7ccccc7)cc6)CC5)C3)CCN42)C(=O)N1 (stereo partly drawn) [Compound B211, 3-((S)-3-((7-(4-((1R,2S)-6-hydroxy-2-phenyl-1,2,3,4-tetrahydronaphthalen-1-yl)phenyl)-7-azaspiro[3.5]nonan-2-yl)methyl)-8-oxo-1,2,3,4,4a,5,8,10-octahydro-9H-pyrazino[1′,2′:4,5][1,4]oxazino[2,3-f]isoindol-9-yl)piperidine-2,6-dione] | < 10 nM | 1 to 10 nM

Second part, led by results:

DC50 (ER) | SMILES | IC50 [1]
< 10 nM | O=C1CCC(N2Cc3cc4c(cc3C2=O)OC[C@@H]2CN(C(=O)CN3CC5(CCN(c6ccc([C@@H]7c8ccc(O)cc8CC[C@@H]7c7ccccc7)cc6)C5)C3)CCN42)C(=O)N1 (stereo partly drawn) [Compound B206, 3-((S)-3-(2-(6-(4-((1R,2S)-6-hydroxy-2-phenyl-1,2,3,4-tetrahydronaphthalen-1-yl)phenyl)-2,6-diazaspiro[3.4]octan-2-yl)acetyl)-8-oxo-1,2,3,4,4a,5,8,10-octahydro-9H-pyrazino[1′,2′:4,5][1,4]oxazino[2,3-f]isoindol-9-yl)piperidine-2,6-dione] | < 1 nM
< 10 nM | O=C1CCC(N2Cc3cc4c(cc3C2=O)OC[C@@H]2CN(CC(=O)N3CC(Nc5ccc([C@@H]6c7ccc(O)cc7CC[C@@H]6c6ccccc6)cc5)C3)CCN42)C(=O)N1 (stereo partly drawn) [Compound B207, 3-((S)-3-(2-(3-((4-((1R,2S)-6-hydroxy-2-phenyl-1,2,3,4-tetrahydronaphthalen-1-yl)phenyl)amino)azetidin-1-yl)-2-oxoethyl)-8-oxo-1,2,3,4,4a,5,8,10-octahydro-9H-pyrazino[1′,2′:4,5][1,4]oxazino[2,3-f]isoindol-9-yl)piperidine-2,6-dione] | < 1 nM
< 10 nM | O=C1CCC(N2Cc3cc4c(cc3C2=O)OC[C@@H]2CN(CC(=O)N3CC5(C3)CN(c3ccc([C@@H]6c7ccc(O)cc7CC[C@@H]6c6ccccc6)cc3)C5)CCN42)C(=O)N1 (stereo partly drawn) [Compound B208, 3-((S)-3-(2-(6-(4-((1R,2S)-6-hydroxy-2-phenyl-1,2,3,4-tetrahydronaphthalen-1-yl)phenyl)-2,6-diazaspiro[3.3]heptan-2-yl)-2-oxoethyl)-8-oxo-1,2,3,4,4a,5,8,10-octahydro-9H-pyrazino[1′,2′:4,5][1,4]oxazino[2,3-f]isoindol-9-yl)piperidine-2,6-dione] | < 1 nM

Reference: patent publication US20260028354A1, “TETRAHYDRONAPHTHALENE DERIVATIVES AS ESTROGEN RECEPTOR DEGRADERS” (REGENT OF THE UNIVERSITY OF MICHIGAN, priority 2022, published 2026)
